According to paper PMC5218480 (PLoS ONE, 2017):

System: MV-4-11 cells
Assay: Gene expression microarray analysis (Affymetrix PrimeView) and GSEA
Assay type: cell-based, human
Design: RFU PODN (11730768_x_at) / Fold change /veh PODN (11730768_x_at) / RFU LINC00158 (11744669_a_at) / Fold change /veh LINC00158 (11744669_a_at) / RFU DUSP10 (11751237_a_at) / Fold change /veh DUSP10 (11751237_a_at) / RFU ID3 (11757404_x_at) / Fold change /veh ID3 (11757404_x_at) / RFU PLEKHG5 (11737974_s_at) / Fold change /veh PLEKHG5 (11737974_s_at) / RFU LRRC4B (11730491_at) / Fold change /veh LRRC4B (11730491_at) / RFU GIMAP4 (11747438_a_at) / Fold change /veh GIMAP4 (11747438_a_at) / RFU KRT8 (11758183_x_at) / Fold change /veh KRT8 (11758183_x_at) / RFU CNN1 (11734310_a_at) / Fold change /veh CNN1 (11734310_a_at) / RFU VPS37D (11726825_at) / Fold change /veh VPS37D (11726825_at) / RFU C10orf10 (11716522_x_at) / Fold change /veh C10orf10 (11716522_x_at) / RFU KIR2DL2 /// KIR2DL4 /// KIR2DL5A /// KIR2DL5B /// KIR2DS1 /// KIR2DS2 /// KIR2DS3 /// KIR2DS4 /// KIR3DL3 /// KIR3DL3 /// KIR3DS1 (11738374_at) / Fold change /veh KIR2DL2 /// KIR2DL4 /// KIR2DL5A /// KIR2DL5B /// KIR2DS1 /// KIR2DS2 /// KIR2DS3 /// KIR2DS4 /// KIR3DL3 /// KIR3DL3 /// KIR3DS1 (11738374_at) / RFU C1QL1 (11718748_at) / Fold change /veh C1QL1 (11718748_at) / RFU TMPRSS4 (11747572_a_at) / Fold change /veh TMPRSS4 (11747572_a_at) / RFU HAMP (11756126_x_at) / Fold change /veh HAMP (11756126_x_at) / RFU RNFT2 (11725882_a_at) / Fold change /veh RNFT2 (11725882_a_at) / RFU NR4A2 (11747474_a_at) / Fold change /veh NR4A2 (11747474_a_at) / RFU ABCC12 (11746883_a_at) / Fold change /veh ABCC12 (11746883_a_at) / RFU TMEM136 (11760407_x_at) / Fold change /veh TMEM136 (11760407_x_at) / RFU CLDN22 /// WWC2 (11732394_at) / Fold change /veh CLDN22 /// WWC2 (11732394_at) / RFU HLA-DPB1 (11760878_x_at) / Fold change /veh HLA-DPB1 (11760878_x_at) / RFU SPINT1 (11716480_a_at) / Fold change /veh SPINT1 (11716480_a_at) / RFU GAP43 (11754022_s_at) / Fold change /veh GAP43 (11754022_s_at) / RFU A4GNT (11735810_at) / Fold change /veh A4GNT (11735810_at) / RFU PRB3 (11715151_x_at) / Fold change /veh PRB3 (11715151_x_at) / RFU TUBB4B (11761932_at) / Fold change /veh TUBB4B (11761932_at) / RFU CAPN14 (11732068_a_at) / Fold change /veh CAPN14 (11732068_a_at) / RFU TMCC2 (11721928_a_at) / Fold change /veh TMCC2 (11721928_a_at) / RFU IRGQ (11745062_a_at) / Fold change /veh IRGQ (11745062_a_at) / RFU FAM174B (11720279_a_at) / Fold change /veh FAM174B (11720279_a_at) / RFU TMPRSS4 (11748680_a_at) / Fold change /veh TMPRSS4 (11748680_a_at) / RFU FAM212B (11763350_a_at) / Fold change /veh FAM212B (11763350_a_at) / RFU PLEKHG5 (11743358_a_at) / Fold change /veh PLEKHG5 (11743358_a_at) / RFU ZSCAN30 (11745921_a_at) / Fold change /veh ZSCAN30 (11745921_a_at) / RFU CMKLR1 (11741424_a_at) / Fold change /veh CMKLR1 (11741424_a_at) / RFU LOC101060620 /// MAPK8IP1 (11723275_at) / Fold change /veh LOC101060620 /// MAPK8IP1 (11723275_at) / RFU SPTSSB (11747773_x_at) / Fold change /veh SPTSSB (11747773_x_at) / RFU PRSS12 (11739890_at) / Fold change /veh PRSS12 (11739890_at) / RFU BIN1 (11741810_x_at) / Fold change /veh BIN1 (11741810_x_at) / RFU WNT11 (11732464_a_at) / Fold change /veh WNT11 (11732464_a_at) / RFU C10orf10 (11716521_a_at) / Fold change /veh C10orf10 (11716521_a_at) / RFU C5orf56 (11738089_at) / Fold change /veh C5orf56 (11738089_at) / RFU CYB561 (11721691_x_at) / Fold change /veh CYB561 (11721691_x_at) / RFU ANKRD19P (11752326_a_at) / Fold change /veh ANKRD19P (11752326_a_at) / RFU OR2T12 /// OR2T33 /// OR2T8 (11738714_s_at) / Fold change /veh OR2T12 /// OR2T33 /// OR2T8 (11738714_s_at) / RFU VCAN (11748164_a_at) / Fold change /veh VCAN (11748164_a_at) / RFU JSRP1 (11732532_at) / Fold change /veh JSRP1 (11732532_at) / RFU KRTAP10-11 (11738290_x_at) / Fold change /veh KRTAP10-11 (11738290_x_at) / RFU MYO3A (11730013_a_at) / Fold change /veh MYO3A (11730013_a_at) / RFU EBF3 (11725865_a_at) / Fold change /veh EBF3 (11725865_a_at) / RFU CAMK2N1 (11719241_x_at) / Fold change /veh CAMK2N1 (11719241_x_at) / RFU C5orf56 (11738088_a_at) / Fold change /veh C5orf56 (11738088_a_at) / RFU OLFML3 (11715873_a_at) / Fold change /veh OLFML3 (11715873_a_at) / RFU LOC100653217 /// NTM (11731650_a_at) / Fold change /veh LOC100653217 /// NTM (11731650_a_at) / RFU MAPK11 (11762145_a_at) / Fold change /veh MAPK11 (11762145_a_at) / RFU FIZ1 (11724087_x_at) / Fold change /veh FIZ1 (11724087_x_at) / RFU OASL (11726364_x_at) / Fold change /veh OASL (11726364_x_at) / RFU SOX15 (11748057_x_at) / Fold change /veh SOX15 (11748057_x_at) / RFU CD79A (11719716_a_at) / Fold change /veh CD79A (11719716_a_at) / RFU HIST1H1D (11736915_at) / Fold change /veh HIST1H1D (11736915_at) / RFU CASKIN2 (11723855_a_at) / Fold change /veh CASKIN2 (11723855_a_at) / RFU LOC730098 (11760151_x_at) / Fold change /veh LOC730098 (11760151_x_at) / RFU OR4N2 (11742367_at) / Fold change /veh OR4N2 (11742367_at) / RFU PRRT2 (11749266_a_at) / Fold change /veh PRRT2 (11749266_a_at) / RFU SNX32 (11753110_a_at) / Fold change /veh SNX32 (11753110_a_at) / RFU CDHR5 (11726645_a_at) / Fold change /veh CDHR5 (11726645_a_at) / RFU RCAN1 (11760418_a_at) / Fold change /veh RCAN1 (11760418_a_at) / RFU FAM167A (11723789_a_at) / Fold change /veh FAM167A (11723789_a_at) / RFU FAM26E (11764081_at) / Fold change /veh FAM26E (11764081_at) / RFU ISYNA1 (11749810_s_at) / Fold change /veh ISYNA1 (11749810_s_at) / RFU ACY1 (11761880_at) / Fold change /veh ACY1 (11761880_at) / RFU 11764098_at / Fold change /veh 11764098_at / RFU SAMD14 (11745864_x_at) / Fold change /veh SAMD14 (11745864_x_at) / RFU NPB (11741838_a_at) / Fold change /veh NPB (11741838_a_at) / RFU TMPRSS6 (11731388_a_at) / Fold change /veh TMPRSS6 (11731388_a_at) / RFU KRTAP10-2 (11738614_at) / Fold change /veh KRTAP10-2 (11738614_at) / RFU ARHGAP8 /// PRR5-ARHGAP8 (11727945_x_at) / Fold change /veh ARHGAP8 /// PRR5-ARHGAP8 (11727945_x_at) / RFU KRTAP5-7 /// NADSYN1 (11734609_at) / Fold change /veh KRTAP5-7 /// NADSYN1 (11734609_at) / RFU RASL12 (11751679_a_at) / Fold change /veh RASL12 (11751679_a_at) / RFU CDKN2B (11736163_a_at) / Fold change /veh CDKN2B (11736163_a_at) / RFU PRF1 (11729649_at) / Fold change /veh PRF1 (11729649_at) / RFU, ZNF638 /// ZNF638-IT1 / Fold change vs veh, ZNF638 /// ZNF638-IT1 / RFU, PANK3 / Fold change vs veh, PANK3 / RFU, SH3YL1 / Fold change vs veh, SH3YL1 / RFU, ZEB2 / Fold change vs veh, ZEB2 / RFU, NRIP1 / Fold change vs veh, NRIP1 / RFU, PTTG1IP / Fold change vs veh, PTTG1IP / RFU, CAPN2 / Fold change vs veh, CAPN2 / RFU, MED14 / Fold change vs veh, MED14 / RFU, SNORA58 / Fold change vs veh, SNORA58 / RFU, C1orf63 / Fold change vs veh, C1orf63 / RFU, LRRFIP1 / Fold change vs veh, LRRFIP1 / RFU, NDUFAF7 / Fold change vs veh, NDUFAF7 / RFU, SLC12A2 / Fold change vs veh, SLC12A2 / RFU, IBTK / Fold change vs veh, IBTK / RFU, ESF1 / Fold change vs veh, ESF1 / Fold change vs veh, TMEM50B / RFU, TAOK1 / Fold change vs veh, TAOK1 / RFU, ACBD3 / Fold change vs veh, ACBD3 / RFU, TMA16 / Fold change vs veh, TMA16 / RFU, RWDD3 / Fold change vs veh, RWDD3 / RFU, BCAT1 / Fold change vs veh, BCAT1 / RFU, EDEM3 / Fold change vs veh, EDEM3 / RFU, TMEM33 / Fold change vs veh, TMEM33 / RFU, WDR75 / Fold change vs veh, WDR75 / RFU, AHCTF1 / Fold change vs veh, AHCTF1 / RFU, TFRC / Fold change vs veh, TFRC / RFU, ZDHHC17 / Fold change vs veh, ZDHHC17 / RFU, NOM1 / Fold change vs veh, NOM1 / RFU, ARL8B / Fold change vs veh, ARL8B / RFU, ZBTB11 / Fold change vs veh, ZBTB11 / RFU, TAMM41 / Fold change vs veh, TAMM41 / RFU, KIAA1704 /// LOC100996395 / Fold change vs veh, KIAA1704 /// LOC100996395 / RFU, ING1 / Fold change vs veh, ING1 / RFU, TRMT61B / Fold change vs veh, TRMT61B / RFU, FUBP3 / Fold change vs veh, FUBP3 / RFU, TP53 / Fold change vs veh, TP53 / RFU, TNKS2 / Fold change vs veh, TNKS2 / RFU, ZFP14 / Fold change vs veh, ZFP14 / RFU, ACTR2 / Fold change vs veh, ACTR2 / RFU, PPP3R1 / Fold change vs veh, PPP3R1 / RFU, PIK3R1 / Fold change vs veh, PIK3R1 / RFU, HNRNPA1 / Fold change vs veh, HNRNPA1 / RFU, RNF170 / Fold change vs veh, RNF170 / RFU, ZNF28 / Fold change vs veh, ZNF28 / RFU, RNGTT / Fold change vs veh, RNGTT / RFU, OGT / Fold change vs veh, OGT / RFU, BRD1 / Fold change vs veh, BRD1 / RFU, MARS / Fold change vs veh, MARS / RFU, ZNF655 / Fold change vs veh, ZNF655 / RFU, FAHD1 / Fold change vs veh, FAHD1 / RFU, BDP1 / Fold change vs veh, BDP1 / RFU, LRRCC1 / Fold change vs veh, LRRCC1 / RFU, ARID1A / Fold change vs veh, ARID1A / RFU, ZNF146 / Fold change vs veh, ZNF146 / RFU, ZNF330 / Fold change vs veh, ZNF330 / RFU, GPN3 / Fold change vs veh, GPN3 / RFU, C9orf123 / Fold change vs veh, C9orf123 / RFU, N4BP2L2 / Fold change vs veh, N4BP2L2 / RFU, ARFIP1 / Fold change vs veh, ARFIP1 / RFU, FAM179B / Fold change vs veh, FAM179B / RFU, BCL10 / Fold change vs veh, BCL10 / RFU, UHRF1BP1L / Fold change vs veh, UHRF1BP1L / RFU, BET1 / Fold change vs veh, BET1 / RFU, CNOT2 / Fold change vs veh, CNOT2 / RFU, ZNF268 / Fold change vs veh, ZNF268 / Fold change vs veh, ZNF507 / RFU, DGCR2 / Fold change vs veh, DGCR2 / RFU, WDSUB1 / Fold change vs veh, WDSUB1 / Fold change vs veh, HSP90B1 /// MIR3652 / RFU, ADSS / Fold change vs veh, ADSS / RFU, GK / Fold change vs veh, GK / RFU, ZNF148 / Fold change vs veh, ZNF148 / RFU, TAF9 / Fold change vs veh, TAF9 / RFU, SLC1A5 / Fold change vs veh, SLC1A5 / RFU, SLMO2 / Fold change vs veh, SLMO2 / RFU, ABCC4 / Fold change vs veh, ABCC4 / RFU, LOC101060439 /// RAP1B / Fold change vs veh, LOC101060439 /// RAP1B / RFU, RFX7 / Fold change vs veh, RFX7 / RFU, GTPBP10 / Fold change vs veh, GTPBP10 / RFU, CNEP1R1 / Fold change vs veh, CNEP1R1 / RFU, BIVM-ERCC5 /// ERCC5 / Fold change vs veh, BIVM-ERCC5 /// ERCC5 / RFU, ILF3 / Fold change vs veh, ILF3 / RFU 11762660_at / Fold change /veh 11762660_at / RFU VCAN (11757783_s_at) / Fold change /veh VCAN (11757783_s_at) / RFU DDX43 (11728927_at) / Fold change /veh DDX43 (11728927_at) / RFU KRT8 (11758188_x_at) / Fold change /veh KRT8 (11758188_x_at) / RFU NKD1 (11759106_at) / Fold change /veh NKD1 (11759106_at) / RFU SRD5A1 (11742802_a_at) / Fold change /veh SRD5A1 (11742802_a_at) / RFU TPSAB1 /// TPSB2 (11721975_s_at) / Fold change /veh TPSAB1 /// TPSB2 (11721975_s_at) / RFU GSTM3 (11746129_a_at) / Fold change /veh GSTM3 (11746129_a_at) / RFU IL23R (11737362_x_at) / Fold change /veh IL23R (11737362_x_at) / RFU TMEM51 (11727254_a_at) / Fold change /veh TMEM51 (11727254_a_at) / RFU PIWIL2 (11732686_x_at) / Fold change /veh PIWIL2 (11732686_x_at) / RFU ORM1 (11744905_x_at) / Fold change /veh ORM1 (11744905_x_at) / RFU CCDC152 (11743942_at) / Fold change /veh CCDC152 (11743942_at) / RFU ECM1 (11717891_a_at) / Fold change /veh ECM1 (11717891_a_at) / RFU IL23R (11748794_a_at) / Fold change /veh IL23R (11748794_a_at) / RFU TNFAIP8L3 (11732012_x_at) / Fold change /veh TNFAIP8L3 (11732012_x_at) / RFU MBOAT4 (11741988_at) / Fold change /veh MBOAT4 (11741988_at) / RFU 11764193_at / Fold change /veh 11764193_at / RFU TMEM53 (11763286_at) / Fold change /veh TMEM53 (11763286_at) / RFU MAGEB2 (11727129_at) / Fold change /veh MAGEB2 (11727129_at) / RFU TMEM200A (11744735_a_at) / Fold change /veh TMEM200A (11744735_a_at) / RFU CCDC152 (11751479_a_at) / Fold change /veh CCDC152 (11751479_a_at) / RFU FAM211A (11726209_a_at) / Fold change /veh FAM211A (11726209_a_at) / RFU RGS16 (11746705_a_at) / Fold change /veh RGS16 (11746705_a_at) / RFU VCAN (11755009_s_at) / Fold change /veh VCAN (11755009_s_at) / RFU RHOB (11743442_s_at) / Fold change /veh RHOB (11743442_s_at) / RFU RGS16 (11720943_a_at) / Fold change /veh RGS16 (11720943_a_at) / RFU RGS16 (11720944_at) / Fold change /veh RGS16 (11720944_at) / RFU, VPS4B / Fold change vs veh, VPS4B / RFU, CREB1 / Fold change vs veh, CREB1 / RFU, DNAJC13 / Fold change vs veh, DNAJC13 / RFU, GNAQ / Fold change vs veh, GNAQ / RFU, CDK5R1 / Fold change vs veh, CDK5R1 / RFU, ZRANB3 / Fold change vs veh, ZRANB3 / RFU, CUL4A / Fold change vs veh, CUL4A / RFU, CCNY / Fold change vs veh, CCNY / RFU, UFL1 / Fold change vs veh, UFL1 / RFU, COG3 / Fold change vs veh, COG3 / RFU, DIAPH2 / Fold change vs veh, DIAPH2 / RFU, SKA2 / Fold change vs veh, SKA2 / RFU, AFF3 / Fold change vs veh, AFF3 / RFU, LMF1 / Fold change vs veh, LMF1 / RFU, IPO11 / Fold change vs veh, IPO11 / RFU, DFFB / Fold change vs veh, DFFB / RFU, FOXP1 / Fold change vs veh, FOXP1 / RFU, CARD8 / Fold change vs veh, CARD8 / RFU, STRN3 / Fold change vs veh, STRN3 / RFU, ADK / Fold change vs veh, ADK / RFU, RASSF2 / Fold change vs veh, RASSF2 / RFU, WIPF1 / Fold change vs veh, WIPF1 / RFU, LARP1B / Fold change vs veh, LARP1B / RFU, RASA1 / Fold change vs veh, RASA1 / RFU, RB1 / Fold change vs veh, RB1 / RFU, PPFIA1 / Fold change vs veh, PPFIA1 / RFU, MAT2A / Fold change vs veh, MAT2A / RFU, CCT5 / Fold change vs veh, CCT5 / RFU, WDR92 / Fold change vs veh, WDR92 / RFU, CUX1 / Fold change vs veh, CUX1 / RFU, TTC7A / Fold change vs veh, TTC7A / RFU, TMEM135 / Fold change vs veh, TMEM135 / RFU, DEPTOR / Fold change vs veh, DEPTOR / RFU, CPM / Fold change vs veh, CPM / RFU, DNAJB6 / Fold change vs veh, DNAJB6 / RFU, CACNA2D3 / Fold change vs veh, CACNA2D3 / RFU, DTX4 / Fold change vs veh, DTX4 / RFU, TFCP2 / Fold change vs veh, TFCP2 / RFU, GMCL1 /// GMCL1P1 / Fold change vs veh, GMCL1 /// GMCL1P1 / RFU, AEBP2 / Fold change vs veh, AEBP2 / RFU, SNHG1 /// SNORD22 /// SNORD25 /// SNORD26 /// SNORD27 /// SNORD28 /// SNORD29 /// SNORD31 / Fold change vs veh, SNHG1 /// SNORD22 /// SNORD25 /// SNORD26 /// SNORD27 /// SNORD28 /// SNORD29 /// SNORD31 / Fold change (Aza/veh), C12orf56 (ProbeSet 11735607_a_at) / Fold change (ACY-1035/veh), C12orf56 (ProbeSet 11735607_a_at) / Fold change (Aza/veh), FGFR1OP (ProbeSet 11751329_s_at) / Fold change (ACY-1035/veh), FGFR1OP (ProbeSet 11751329_s_at) / Fold change (Aza/veh), VPS36 (ProbeSet 11739960_a_at) / Fold change (ACY-1035/veh), VPS36 (ProbeSet 11739960_a_at) / RFU SYPL1 (11715823_x_at) / Fold change /veh SYPL1 (11715823_x_at) / RFU IGFBP7 (11715501_s_at) / Fold change /veh IGFBP7 (11715501_s_at) / RFU REEP3 (11722064_at) / Fold change /veh REEP3 (11722064_at) / RFU IGLL1 (11728026_x_at) / Fold change /veh IGLL1 (11728026_x_at): dose or concentration left out as unconfirmed
Settings: ProbeSet 11741070_a_at; LIST B

Nc1ncn([C@@H]2O[C@H](CO)[C@@H](O)[C@H]2O)c(=O)n1 [azacitidine]
Fold change vs veh, ZNF146: 0.88
